# Values joined by “and” are separate entries in the source; they are usually repeats but may differ in a detail not shown here. Equal values may be shown once.
# Experiments:
# [1] = target: human α-thrombin (Homo sapiens, UniProt P00734); assay: Protease inhibition, Ki for human α-thrombin (fluorogenic substrate Z-Gly-Gly-Arg-AMC); assay type: biochemical; conditions: replicates R1-R3
# Outline: (§1)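 Inhibition was measured as AMC fluorescence from 50 μM substrate, monitored for 30 min at 25 °C, relative to a peptide-free control. Human and rat enzymes were present at 2 nM and 3 nM final, respectively, in 50 mM Tris-HCl pH 7.4, 150 mM NaCl, 10 mM MgCl2, 1 mM CaCl2. Ki derives from fitted IC50 via Cheng–Prusoff.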
# [2] = Metabolic stability in rat liver microsomes (RLMs); conditions: rat, microsomes
# [3] = Passive artificial membrane permeability (PAMPA); conditions: for PAMPA permeability: % permeability: 50 μM, 12–18 h, acceptor concentration relative to equilibrium; for Papp at 50 μM / Permeability% Average / Permeability% R1 / Permeability% R3: PAMPA; for Papp at 50 μM: pH 7.4; for Permeability% Average: average of R1-R3; for Permeability% R1: replicate R1; for Permeability% R1 / Permeability% R3: TIC of top well sample relative to sample at theoretical equilibrium; for Permeability% R3: replicate R3
# [4] = target: T1, rat α-thrombin (Rattus norvegicus, UniProt P18292); assay: Protease inhibition, Ki for rat α-thrombin (fluorogenic substrate Z-Gly-Gly-Arg-AMC); assay type: biochemical; conditions: replicates R1-R3
# T1 construct: rat α-thrombin (Molecular Innovations) were used at final concentrations of 2 nM and 3 nM; purchased Molecular Innovations
# Outline: as §1
# [5] = target: T2, porcine pepsin (Sus scrofa, UniProt P00791); assay: Peptide stability in simulated gastric fluid (SGF); assay type: in vitro ADME; conditions: for SGF stability, Residual peptide Average / SGF stability, Residual peptide: after 8 h vs 0 h (TIC); for SGF stability, Residual peptide Average: average of R1-R3; for SGF stability, Residual peptide: single replicates R1-R3; for remaining at 8 h: simulated gi fluid, 37 °C, pH 1.2, read-out: Proteolytic stability: SGF (8 h) % remaining
# T2 construct: 0.32 g of porcine pepsin (Sigma-Aldrich, P7125) was dissolved under gentle agitation; purchased Sigma-Aldrich P7125
# Outline: (§2)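 Peptide from a 1 mM DMSO stock was added to fluid pre-warmed at 37 °C. SGF was pH 1.2 NaCl with porcine pepsin (0.32 g per 100 ml), and SIF was pH 6.8 potassium phosphate with porcine pancreatin (1 g per 100 ml). Supernatant peptide was quantified by LC–MS, with residual expressed as T1/T0.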
# [6] = Peptide stability in simulated intestinal fluid (SIF); assay type: in vitro ADME, porcine; conditions: simulated gi fluid; 8 h, 37 °C, pH 6.8; read-out: Proteolytic stability: SIF (8 h) % remaining
# Outline: as §2
# [7] = system: porcine pancreatin; assay: as above; assay type: in vitro ADME; conditions: after 8 h vs 0 h (TIC); average of R1-R3
# Outline: as §2
# [8] = peptide 1.33E+02 uM, slope of proteolytic substrate cleavage over time
# [9] = CL (ul/min/mg protein) R1, RLM CL, replicate R1
# [10] = CL (ul/min/mg protein) R2, RLM CL, replicate R2
# [11] = CL (ul/min/mg protein) R3, RLM CL, replicate R3
# [12] = Half Life (min) R1, RLM metabolic stability, replicate R1, 0-60 min
# [13] = Half Life (min) R2, RLM metabolic stability, replicate R2, 0-60 min
# [14] = Half Life (min) R3, RLM metabolic stability, replicate R3, 0-60 min
# [15] = Metabolic stability: Half life T1/2 (min), RLMs, mean and SD, three measurements
# [16] = Metabolic stability: RLM CL (ul/min/mg), RLMs, mean and SD, three measurements
# T2 sequence (P00791 60-385): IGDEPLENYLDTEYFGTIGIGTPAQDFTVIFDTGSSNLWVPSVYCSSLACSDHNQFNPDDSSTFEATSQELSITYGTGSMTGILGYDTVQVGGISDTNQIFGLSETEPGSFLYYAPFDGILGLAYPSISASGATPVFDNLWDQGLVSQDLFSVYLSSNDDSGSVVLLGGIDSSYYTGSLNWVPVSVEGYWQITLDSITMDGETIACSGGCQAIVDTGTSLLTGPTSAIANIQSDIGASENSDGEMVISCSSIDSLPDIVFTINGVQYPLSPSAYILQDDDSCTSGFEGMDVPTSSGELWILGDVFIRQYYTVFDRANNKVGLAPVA
compound,measurement,setting,value
O=C1CC2CCN(CC2)C(=O)[C@H](Cc2ccccc2)NC(=O)[C@@H](NC(=O)c2ccc(Cl)s2)CSCc2cccc(n2)CSCCN1 [compound 15],"Human alpha thrombin inhibition, slope normalized to DMSO",[1]; peptide 1.02E-03 uM,100.6 and 98.3 and 99.0
same,"Human alpha thrombin inhibition, slope normalized to DMSO",[1]; peptide 1.04E+00 uM,68.1 and 68.7 and 68.9
same,"Human alpha thrombin inhibition, slope normalized to DMSO",[1]; peptide 1.27E-04 uM,101.1 and 97.6 and 104.9
same,"Human alpha thrombin inhibition, slope normalized to DMSO",[1]; peptide 1.30E-01 uM,90.7 and 100.7 and 97.5
same,"Human alpha thrombin inhibition, slope normalized to DMSO",[1]; [8],4.8 and 5.5 and 1.6
same,"Human alpha thrombin inhibition, slope normalized to DMSO",[1]; peptide 1.63E-02 uM,110.6 and 96.8 and 100.1
same,"Human alpha thrombin inhibition, slope normalized to DMSO",[1]; peptide 1.67E+01 uM,12.1 and 12.4 and 14.6
same,"Human alpha thrombin inhibition, slope normalized to DMSO",[1]; peptide 2.03E-03 uM,101.2 and 99.3 and 100.0
same,"Human alpha thrombin inhibition, slope normalized to DMSO",[1]; peptide 2.08E+00 uM,65.0 and 52.9 and 51.5
same,"Human alpha thrombin inhibition, slope normalized to DMSO",[1]; peptide 2.54E-04 uM,99.3 and 97.7 and 101.2
same,"Human alpha thrombin inhibition, slope normalized to DMSO",[1]; peptide 2.60E-01 uM,95.0 and 89.4 and 94.7
same,"Human alpha thrombin inhibition, slope normalized to DMSO",[1]; peptide 3.18E-05 uM,97.8 and 94.7 and 100.8
same,"Human alpha thrombin inhibition, slope normalized to DMSO",[1]; peptide 3.26E-02 uM,94.1 and 101.2 and 106.3
same,"Human alpha thrombin inhibition, slope normalized to DMSO",[1]; peptide 3.33E+01 uM,8.2 and 10.1 and 12.2
same,"Human alpha thrombin inhibition, slope normalized to DMSO",[1]; peptide 4.07E-03 uM,102.2 and 130.5 and 101.9
same,"Human alpha thrombin inhibition, slope normalized to DMSO",[1]; peptide 4.17E+00 uM,34.4 and 33.3 and 35.3
same,"Human alpha thrombin inhibition, slope normalized to DMSO",[1]; peptide 5.09E-04 uM,99.7 and 107.7 and 101.3
same,"Human alpha thrombin inhibition, slope normalized to DMSO",[1]; peptide 5.21E-01 uM,82.1 and 87.9 and 83.3
same,"Human alpha thrombin inhibition, slope normalized to DMSO",[1]; peptide 6.36E-05 uM,100.1 and 97.7 and 104.2
same,"Human alpha thrombin inhibition, slope normalized to DMSO",[1]; peptide 6.51E-02 uM,100.7 and 90.2 and 100.6
same,"Human alpha thrombin inhibition, slope normalized to DMSO",[1]; peptide 6.67E+01 uM,5.7 and 5.6 and 9.1
same,"Human alpha thrombin inhibition, slope normalized to DMSO",[1]; peptide 8.14E-03 uM,98.8 and 99.9 and 103.6
same,"Human alpha thrombin inhibition, slope normalized to DMSO",[1]; peptide 8.33E+00 uM,23.8 and 18.1 and 21.3
same,microsomal CLint,[2]; [9],87.8 µL/min/mg
same,microsomal CLint,[2]; [10],76.3 µL/min/mg
same,microsomal CLint,[2]; [11],81.9 µL/min/mg
same,half-life,[2]; [12],15.8 min
same,half-life,[2]; [13],18.2 min
same,half-life,[2]; [14],16.9 min
same,half-life,[2]; [15],17 ± 1 min
same,microsomal CLint,[2]; [16],82 ± 5 µL/min/mg
same,PAMPA permeability: % permeability,[3],20 ± 10%
same,Papp at 50 μM,[3],1.35 ×10⁻⁶ cm/s
same,Permeability% Average,[3],20.3%
same,Permeability% R1,[3],29.62%
same,Permeability% R3,[3],22.19%
same,"Rat alpha thrombin inhibition, slope normalized to DMSO",[4]; [8],1.8 and 3.0 and 9.6
same,"Rat alpha thrombin inhibition, slope normalized to DMSO",[4]; peptide 1.67E+01 uM,7.1 and 6.4 and 13.3
same,"Rat alpha thrombin inhibition, slope normalized to DMSO",[4]; peptide 2.08E+00 uM,34.4 and 33.4 and 32.9
same,"Rat alpha thrombin inhibition, slope normalized to DMSO",[4]; peptide 3.33E+01 uM,4.1 (2×) and 10.8
same,"Rat alpha thrombin inhibition, slope normalized to DMSO",[4]; peptide 4.17E+00 uM,21.9 and 19.6 and 23.7
same,"Rat alpha thrombin inhibition, slope normalized to DMSO",[4]; peptide 6.67E+01 uM,2.7 and 2.8 and 9.5
same,"Rat alpha thrombin inhibition, slope normalized to DMSO",[4]; peptide 8.33E+00 uM,12.5 and 11.7 and 18.6
same,"SGF stability, Residual peptide Average",[5],98.62
same,"SGF stability, Residual peptide",[5],100.84 and 98.47 and 96.53
same,remaining at 8 h,[5],99 ± 2%
same,remaining at 8 h,[6],88 ± 18%
same,"SIF stability, Residual peptide Average",[7],87.61
O=C(N[C@H]1CSCCS(=O)(=O)CCSCCNC(=O)C2(CC2)CNC(=O)[C@H](Cc2ccccc2)NC1=O)c1ccc(Cl)s1 [compound 16],"Human alpha thrombin inhibition, slope normalized to DMSO",[1]; peptide 1.02E-03 uM,95.7 (2×) and 101.7
same,"Human alpha thrombin inhibition, slope normalized to DMSO",[1]; peptide 1.04E+00 uM,62.0 and 61.5 and 59.7
same,"Human alpha thrombin inhibition, slope normalized to DMSO",[1]; peptide 1.27E-04 uM,99.4 and 101.3 and 98.3
same,"Human alpha thrombin inhibition, slope normalized to DMSO",[1]; peptide 1.30E-01 uM,89.0 and 89.6 and 91.9
same,"Human alpha thrombin inhibition, slope normalized to DMSO",[1]; [8],4.8 and 2.4 and 6.7
same,"Human alpha thrombin inhibition, slope normalized to DMSO",[1]; peptide 1.63E-02 uM,103.7 and 97.9 and 94.4
same,"Human alpha thrombin inhibition, slope normalized to DMSO",[1]; peptide 1.67E+01 uM,-1.3 and 11.2 and 10.7
same,"Human alpha thrombin inhibition, slope normalized to DMSO",[1]; peptide 2.03E-03 uM,102.2 and 96.9 and 97.7
same,"Human alpha thrombin inhibition, slope normalized to DMSO",[1]; peptide 2.08E+00 uM,40.1 and 46.6 and 47.4
same,"Human alpha thrombin inhibition, slope normalized to DMSO",[1]; peptide 2.54E-04 uM,100.3 and 97.2 and 96.3
same,"Human alpha thrombin inhibition, slope normalized to DMSO",[1]; peptide 2.60E-01 uM,83.3 and 73.2 and 85.9
same,"Human alpha thrombin inhibition, slope normalized to DMSO",[1]; peptide 3.18E-05 uM,101.8 and 98.5 and 103.1
same,"Human alpha thrombin inhibition, slope normalized to DMSO",[1]; peptide 3.26E-02 uM,95.9 and 94.2 and 94.5
same,"Human alpha thrombin inhibition, slope normalized to DMSO",[1]; peptide 3.33E+01 uM,6.5 (2×) and 8.7
same,"Human alpha thrombin inhibition, slope normalized to DMSO",[1]; peptide 4.07E-03 uM,101.7 and 97.8 and 102.2
same,"Human alpha thrombin inhibition, slope normalized to DMSO",[1]; peptide 4.17E+00 uM,27.0 and 27.6 and 28.2
same,"Human alpha thrombin inhibition, slope normalized to DMSO",[1]; peptide 5.09E-04 uM,97.5 and 98.8 and 97.2
same,"Human alpha thrombin inhibition, slope normalized to DMSO",[1]; peptide 5.21E-01 uM,78.3 and 65.6 and 76.6
same,"Human alpha thrombin inhibition, slope normalized to DMSO",[1]; peptide 6.36E-05 uM,105.9 and 99.3 and 96.8
same,"Human alpha thrombin inhibition, slope normalized to DMSO",[1]; peptide 6.51E-02 uM,92.3 and 91.0 and 94.1
same,"Human alpha thrombin inhibition, slope normalized to DMSO",[1]; peptide 6.67E+01 uM,5.1 and 4.9 and 7.0
same,"Human alpha thrombin inhibition, slope normalized to DMSO",[1]; peptide 8.14E-03 uM,97.0 (2×) and 91.0
same,"Human alpha thrombin inhibition, slope normalized to DMSO",[1]; peptide 8.33E+00 uM,19.7 and 13.2 and 20.2
same,microsomal CLint,[2]; [9],61 µL/min/mg
same,microsomal CLint,[2]; [10],51.4 µL/min/mg
same,microsomal CLint,[2]; [11],62.2 µL/min/mg
same,half-life,[2]; [12],22.7 min
same,half-life,[2]; [13],26.9 min
same,half-life,[2]; [14],22.3 min
same,half-life,[2]; [15],24 ± 2 min
same,microsomal CLint,[2]; [16],58 ± 5 µL/min/mg
same,PAMPA permeability: % permeability,[3],8.6 ± 3.0%
same,Papp at 50 μM,[3],0.575 ×10⁻⁶ cm/s
same,Permeability% Average,[3],8.6%
same,Permeability% R1,[3],11.91%
same,Permeability% R3,[3],7.66%
same,"Rat alpha thrombin inhibition, slope normalized to DMSO",[4]; [8],3.3 and 2.8 and 2.1
same,"Rat alpha thrombin inhibition, slope normalized to DMSO",[4]; peptide 1.67E+01 uM,6.6 and 5.4 and 5.1
same,"Rat alpha thrombin inhibition, slope normalized to DMSO",[4]; peptide 2.08E+00 uM,33.9 and 33.4 and 32.2
same,"Rat alpha thrombin inhibition, slope normalized to DMSO",[4]; peptide 3.33E+01 uM,4.4 and 3.4 and 3.5
same,"Rat alpha thrombin inhibition, slope normalized to DMSO",[4]; peptide 4.17E+00 uM,19.8 and 18.5 and 18.4
same,"Rat alpha thrombin inhibition, slope normalized to DMSO",[4]; peptide 6.67E+01 uM,3.3 and 1.7 and 2.4
same,"Rat alpha thrombin inhibition, slope normalized to DMSO",[4]; peptide 8.33E+00 uM,11.8 and 11.2 and 10.2
same,"SGF stability, Residual peptide Average",[5],98.52
same,"SGF stability, Residual peptide",[5],104.99 and 99.11 and 91.47
same,remaining at 8 h,[5],99 ± 7%
same,remaining at 8 h,[6],6.3 ± 1.9%
same,"SIF stability, Residual peptide Average",[7],6.32

# Source: article PMC11062899, “De novo development of small cyclic peptides that are orally bioavailable” (Nature Chemical Biology, 2023)
